Key:
[1] = biological target: T1, Serine/threonine-protein kinase Sgk1 (Homo sapiens) (UniProt O00141); experiment: Inhibition of human truncated SGK1 expressed in baculovirus assessed as substrate phosphorylation using fluorescence-labelled peptides as substrate at 8 uM after 90 mins by microfluidic peptide phosphorylation assay
T1 sequence (whole entry): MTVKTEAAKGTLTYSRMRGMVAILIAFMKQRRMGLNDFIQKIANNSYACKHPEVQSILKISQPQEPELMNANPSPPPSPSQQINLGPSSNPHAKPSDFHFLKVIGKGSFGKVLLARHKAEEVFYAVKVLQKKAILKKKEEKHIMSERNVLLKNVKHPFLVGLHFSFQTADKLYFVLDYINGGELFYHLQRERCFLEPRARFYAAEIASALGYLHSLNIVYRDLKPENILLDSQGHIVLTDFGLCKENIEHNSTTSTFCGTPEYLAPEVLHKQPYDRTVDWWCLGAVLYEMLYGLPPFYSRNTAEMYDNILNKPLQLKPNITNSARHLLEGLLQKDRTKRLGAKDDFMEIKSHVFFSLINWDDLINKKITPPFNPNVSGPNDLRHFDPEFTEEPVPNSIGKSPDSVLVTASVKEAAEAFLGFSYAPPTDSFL

[2] = biological target: T2, Serine/threonine-protein kinase D1 (Homo sapiens) (UniProt Q15139); experiment: Inhibition of human full length PKD1 expressed in baculovirus assessed as substrate phosphorylation using fluorescence-labelled peptides as substrate at 0.06 uM after 90 mins by microfluidic peptide phosphorylation assay
T2 sequence (whole entry): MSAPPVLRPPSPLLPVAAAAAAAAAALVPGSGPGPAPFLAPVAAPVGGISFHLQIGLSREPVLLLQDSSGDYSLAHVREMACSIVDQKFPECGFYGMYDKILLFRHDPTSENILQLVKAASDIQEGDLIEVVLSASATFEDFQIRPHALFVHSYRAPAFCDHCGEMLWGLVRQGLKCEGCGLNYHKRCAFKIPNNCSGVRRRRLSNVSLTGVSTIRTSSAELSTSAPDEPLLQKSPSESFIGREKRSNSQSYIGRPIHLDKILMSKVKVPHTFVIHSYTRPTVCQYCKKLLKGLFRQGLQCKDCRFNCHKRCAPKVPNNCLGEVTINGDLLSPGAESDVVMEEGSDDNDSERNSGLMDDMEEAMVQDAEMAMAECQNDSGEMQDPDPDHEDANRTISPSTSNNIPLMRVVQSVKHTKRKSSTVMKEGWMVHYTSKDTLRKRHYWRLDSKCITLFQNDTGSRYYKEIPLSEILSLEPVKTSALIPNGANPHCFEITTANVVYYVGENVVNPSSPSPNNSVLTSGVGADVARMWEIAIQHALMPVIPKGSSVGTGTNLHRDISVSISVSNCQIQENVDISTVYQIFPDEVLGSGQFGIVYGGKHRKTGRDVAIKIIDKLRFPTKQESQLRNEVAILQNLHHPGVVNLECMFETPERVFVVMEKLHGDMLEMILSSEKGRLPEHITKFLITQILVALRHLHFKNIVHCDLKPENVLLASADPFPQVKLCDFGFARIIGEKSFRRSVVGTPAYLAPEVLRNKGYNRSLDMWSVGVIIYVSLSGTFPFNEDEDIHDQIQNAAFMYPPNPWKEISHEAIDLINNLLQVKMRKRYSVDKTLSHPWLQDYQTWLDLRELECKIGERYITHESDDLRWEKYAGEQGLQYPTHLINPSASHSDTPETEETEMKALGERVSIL

[3] = biological target: T3, Serine/threonine-protein kinase Chk1 (Homo sapiens) (UniProt O14757); experiment: Inhibition of human full length CHK1 expressed in baculovirus assessed as substrate phosphorylation using fluorescence-labelled peptides as substrate at 0.2 uM after 90 mins by microfluidic peptide phosphorylation assay
T3 sequence (whole entry): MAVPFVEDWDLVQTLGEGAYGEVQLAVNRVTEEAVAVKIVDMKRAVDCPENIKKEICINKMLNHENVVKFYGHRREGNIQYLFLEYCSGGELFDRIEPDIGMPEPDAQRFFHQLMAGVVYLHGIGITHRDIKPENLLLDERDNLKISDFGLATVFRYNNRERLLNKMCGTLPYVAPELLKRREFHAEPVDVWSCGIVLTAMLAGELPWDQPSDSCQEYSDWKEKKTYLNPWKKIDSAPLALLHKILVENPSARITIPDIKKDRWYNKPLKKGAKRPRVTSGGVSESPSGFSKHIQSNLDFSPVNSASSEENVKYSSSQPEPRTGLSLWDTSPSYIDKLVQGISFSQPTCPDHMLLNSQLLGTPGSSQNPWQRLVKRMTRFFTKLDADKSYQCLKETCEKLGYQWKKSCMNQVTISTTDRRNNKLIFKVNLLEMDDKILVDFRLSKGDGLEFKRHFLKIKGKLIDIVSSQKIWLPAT

[4] = biological target: T4, Protein kinase C epsilon type (Homo sapiens) (UniProt Q02156); experiment: Inhibition of human truncated PKC epsilon expressed in baculovirus assessed as substrate phosphorylation using fluorescence-labelled peptides as substrate at 95 uM after 90 mins by microfluidic peptide phosphorylation assay
T4 sequence (whole entry): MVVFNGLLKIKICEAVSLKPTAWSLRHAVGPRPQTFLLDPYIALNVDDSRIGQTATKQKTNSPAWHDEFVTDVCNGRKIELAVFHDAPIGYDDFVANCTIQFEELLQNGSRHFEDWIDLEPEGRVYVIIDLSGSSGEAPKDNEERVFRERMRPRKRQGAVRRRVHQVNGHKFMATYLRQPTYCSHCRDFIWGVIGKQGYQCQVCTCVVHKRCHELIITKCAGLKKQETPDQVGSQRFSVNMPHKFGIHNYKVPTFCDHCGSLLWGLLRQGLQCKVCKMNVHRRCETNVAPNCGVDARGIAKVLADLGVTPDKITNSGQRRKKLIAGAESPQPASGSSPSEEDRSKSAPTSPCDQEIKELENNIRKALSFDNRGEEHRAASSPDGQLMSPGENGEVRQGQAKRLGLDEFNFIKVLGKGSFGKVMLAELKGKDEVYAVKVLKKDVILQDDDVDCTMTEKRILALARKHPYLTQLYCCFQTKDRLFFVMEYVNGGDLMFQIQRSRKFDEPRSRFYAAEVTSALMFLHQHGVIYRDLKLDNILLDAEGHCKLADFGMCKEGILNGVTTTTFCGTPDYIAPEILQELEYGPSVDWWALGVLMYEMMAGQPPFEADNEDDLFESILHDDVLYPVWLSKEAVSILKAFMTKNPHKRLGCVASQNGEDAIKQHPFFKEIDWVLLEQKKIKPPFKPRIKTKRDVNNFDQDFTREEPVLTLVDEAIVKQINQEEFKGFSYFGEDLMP

[5] = biological target: Tyrosine-protein kinase ABL1 (Homo sapiens) (UniProt P00519); experiment: Inhibition of human full-length ABL expressed in baculovirus assessed as substrate phosphorylation using fluorescence-labelled peptides as substrate at 70 uM after 90 mins by microfluidic peptide phosphorylation assay
Sequence of Tyrosine-protein kinase ABL1 (Homo sapiens) (P00519 whole entry, the tested form may be a part): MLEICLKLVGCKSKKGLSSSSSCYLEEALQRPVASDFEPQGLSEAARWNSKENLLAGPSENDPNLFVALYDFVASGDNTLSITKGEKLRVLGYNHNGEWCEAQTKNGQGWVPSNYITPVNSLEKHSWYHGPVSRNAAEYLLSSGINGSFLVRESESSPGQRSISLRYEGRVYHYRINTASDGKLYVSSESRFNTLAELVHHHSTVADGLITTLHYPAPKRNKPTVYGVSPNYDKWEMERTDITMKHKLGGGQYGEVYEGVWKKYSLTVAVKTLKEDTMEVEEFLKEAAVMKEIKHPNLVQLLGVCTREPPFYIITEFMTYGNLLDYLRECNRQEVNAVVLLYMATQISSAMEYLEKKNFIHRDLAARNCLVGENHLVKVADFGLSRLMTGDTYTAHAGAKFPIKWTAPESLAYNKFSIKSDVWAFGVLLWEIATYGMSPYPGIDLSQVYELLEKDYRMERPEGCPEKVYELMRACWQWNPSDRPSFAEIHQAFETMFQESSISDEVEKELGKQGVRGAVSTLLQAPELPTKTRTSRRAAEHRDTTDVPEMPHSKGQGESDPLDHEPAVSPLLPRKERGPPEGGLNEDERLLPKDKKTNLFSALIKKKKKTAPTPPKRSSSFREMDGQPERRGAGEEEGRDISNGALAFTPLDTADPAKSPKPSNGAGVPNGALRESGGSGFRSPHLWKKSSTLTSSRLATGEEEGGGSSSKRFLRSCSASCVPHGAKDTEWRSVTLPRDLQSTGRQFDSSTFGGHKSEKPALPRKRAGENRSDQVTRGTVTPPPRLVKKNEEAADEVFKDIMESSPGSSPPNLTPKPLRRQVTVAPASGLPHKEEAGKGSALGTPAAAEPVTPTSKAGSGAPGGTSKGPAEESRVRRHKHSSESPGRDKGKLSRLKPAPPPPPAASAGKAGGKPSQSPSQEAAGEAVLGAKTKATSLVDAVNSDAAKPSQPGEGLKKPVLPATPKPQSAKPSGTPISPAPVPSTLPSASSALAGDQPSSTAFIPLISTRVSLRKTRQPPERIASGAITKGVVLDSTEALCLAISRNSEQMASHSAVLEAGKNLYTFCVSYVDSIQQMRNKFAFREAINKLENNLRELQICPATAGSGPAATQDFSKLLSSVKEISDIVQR

[6] = organism: Homo sapiens; experiment: Inhibition of human P70S6K catalytic domain expressed in baculovirus assessed as substrate phosphorylation using fluorescence-labelled peptides as substrate at 420 uM after 90 mins by microfluidic peptide phosphorylation assay

NCC1CCN(c2ncnc3[nH]ccc23)CC1
inhibition [1]: 59%

NC1(Cc2ccc(Cl)cc2)CCN(c2ncnc3[nH]ccc23)CC1
inhibition [2]: 32.5%

Clc1ccc(C2(c3ccc(-c4ncnc5[nH]cnc45)cc3)CCNCC2)cc1
inhibition [3]: 46%

NCCc1ccc(-c2ncnc3[nH]cnc23)cc1
inhibition [4]: 49%

CNCc1ccc(-c2ncnc3[nH]cnc23)cc1
inhibition [5]: 47.5%

c1nc(N2CCOCC2)c2nc[nH]c2n1
inhibition [6]: 84.5%

Source: ChEMBL document CHEMBL3132769, “Fragment growing to retain or alter the selectivity of anchored kinase hinge-binding fragments” (Medchemcomm, 2014)
